The values below come from patent publication US5817815A, “Pharmacologically active enantiomers” (Angelini Ricerche S.p.A. Societa Consortile, priority 1993, dated 1998).

In assay [1] the target is alpha 1 adrenergic receptors. Briefly: affinity for alpha 1 adrenergic receptors, receptor binding test. The conditions noted are these: for IC50: receptor binding; for interference with the adrenergic receptor, in words: comparison with racemate. An excerpt: (§1) Since an interference with the adrenergic system is an index of undesirable effects, both the capability of binding to alpha 1 adrenergic receptors, as IC50 (Table 2), and the alphalytic activity (Table 3) of the same compounds have been evaluated.
As far as the receptor binding test is concerned, reference is made to "Molecular Pharmacology", 20, 295-301, (1981).

For assay [2], the target named is T1, deferent of rat (Rattus norvegicus).
T1 construct: evaluated on an isolated organ (deferent of rat); from tissue; host or cells: isolated vas deferens of rat
The assay can be described thus: alphalytic activity on an isolated organ (deferent of rat). The following applies: isolated deferent of rat; read-out: Alphalytic activity pA2 (converted). How it is done:
as §1
(§2) In turn, the alphalytic activity was evaluated on an isolated organ (deferent of rat) according to the technique described in "Clinical and Experimental Pharmacology & Physiology", 6, 275-279, (1979).

Assay [3] in a line: analgesic activity, phenylquinone test in mice via subcutaneous route. Type of assay: in vivo. The conditions noted are these: for ED50: Mus musculus, sc, mice, subcutaneous, phenylquinone test; for analgesic activity, in words: comparison of enantiomers and racemate. How it is done: Thirty animals were treated with each product.
In assay [4] the target is T2, deferent of rat (Rattus norvegicus, UniProt P43140).
T2 construct: evaluated on an isolated organ (deferent of rat); from tissue; host or cells: isolated vas deferens of rat
T2 sequence (P43140 1-466): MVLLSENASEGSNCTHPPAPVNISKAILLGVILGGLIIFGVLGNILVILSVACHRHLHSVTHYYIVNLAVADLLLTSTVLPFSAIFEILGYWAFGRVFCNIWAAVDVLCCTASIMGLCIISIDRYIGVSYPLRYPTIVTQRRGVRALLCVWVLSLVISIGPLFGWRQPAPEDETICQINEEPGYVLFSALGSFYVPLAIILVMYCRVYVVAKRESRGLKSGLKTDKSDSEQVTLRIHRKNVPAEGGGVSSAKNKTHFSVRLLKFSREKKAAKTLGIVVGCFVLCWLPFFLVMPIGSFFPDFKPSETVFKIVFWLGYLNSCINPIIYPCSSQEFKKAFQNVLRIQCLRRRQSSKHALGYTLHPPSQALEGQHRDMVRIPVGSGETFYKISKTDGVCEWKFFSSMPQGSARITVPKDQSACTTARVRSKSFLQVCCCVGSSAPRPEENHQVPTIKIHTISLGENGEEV
Briefly: alphalytic activity on an isolated organ (deferent of rat). The following applies: comparison of enantiomers and racemate. How it is done:
as §1, §2

Where only a bound is given, the exact number is not on record here.

In assay [1], `CC1CN(c2cccc(Cl)c2)CCN1CCCn1nc2ccccn2c1=O` (racemic) [Racemate, reference compound] had a half-inhibitory concentration (IC50) of 471 nM. Besides, in assay [2], the Kb is 20 nM. Also, in assay [3], the ED50 was above 12.5 mg/kg and the “analgesic activity, in words” value is reported as “less analgesic activity compared to the single enantiomers”.

For `C[C@@H]1CN(c2cccc(Cl)c2)CCN1CCCn1nc2ccccn2c1=O` [(R), (R)-2-[3-[4-(3-chlorophenyl)-1-(2-methyl)-piperazinyl]-propyl]-1,2,4-triazol[4,3-a]-pyridine-3(2H)-one], in assay [1], the “interference with the adrenergic receptor, in words” value is recorded as “lower than those of racemate” and the IC50 came out at 533 nM. In addition, the “alphalytic activity, in words” value in assay [4] was “lower than those of racemate”. In addition, the Kb in assay [2] is 178 nM. In assay [3], the 50% effect level (ED50) was put at a dose of 9.02 mg/kg.

Take `C[C@H]1CN(c2cccc(Cl)c2)CCN1CCCn1nc2ccccn2c1=O` [(S), (S)-2-[3-[4-(3-chlorophenyl)-1-(2-methyl)-piperazinyl]-propyl]-1,2,4-triazol[4,3-a]-pyridine-3(2H)-one]: in assay [1], the “interference with the adrenergic receptor, in words” value is reported as “lower than those of racemate” and the concentration for half-maximal inhibition (IC50) came out at 981 nM. Also, in assay [4], the “alphalytic activity, in words” value is listed as “lower than those of racemate”. Further, the “alphalytic activity, in words” value in assay [4] (listed as (S) enantiomer) is recorded as “lower than that of (R) enantiomer”. Besides, the Kb in assay [2] was 3980 nM. Also, in assay [3], the median effective dose (ED50) is 7.8 mg/kg and the “analgesic activity, in words” value is listed as “more active than (R) enantiomer”.

By IC50 is commonly meant the point on the concentration scale where inhibition reaches its midpoint. Read a high IC50 as weaker potency in that assay. In general, ED50 refers to the midpoint of the dose-response relation.
